The record followed here is PubChem BioAssay (NCI).

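Interpolation was linear, between the two tested concentrations surrounding the appropriate level; five concentrations were tested over 48 hours in 96-well plates. GI50 is the concentration that inhibits growth by half. Definition used: TGI = concentration required for complete inhibition of growth.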

Holding throughout (assay): NCI anticancer screen, dose series, 48 h
For assay [1], the system named is 786-0 renal.
The subject of assay [2] is A549 NSCLC.
The subject of assay [3] is CAKI-1 renal.
In assay [4] the test system is DU-145 prostate.
The test system of assay [5] is M14 melanoma.
In assay [6] the test system is MALME-3M melanoma.
For assay [7], the system named is OVCAR-4 ovarian.
Assay [8] concerns SK-MEL-28 melanoma.
Assay [9] deals with SW-620 colon.
In assay [10] the test system is TK-10 renal.

Take `O=C(N[C@@H](C[Se][Se]C[C@H](NC(=O)c1ccc(Br)cc1F)C(=O)O)C(=O)O)c1ccc(Br)cc1F`: the GI50 in assay [1], in assay [2], in [3], in assay [4], in [5] and in assay [6] was over 100 µM each time. The GI50 in assay [7], in assay [8], in assay [9] and in assay [10] was over 100 µM throughout. Moreover, the TGI in [1], in [2], in assay [3], in assay [4], in assay [5] and in assay [6] was over 100 µM in each case. Also, the TGI in [7], in assay [8], in assay [9] and in assay [10] was over 100 µM each time.

Take `CC(=O)c1ccc(O)c(CN(C2CCCCC2)C2CCCCC2)c1O`: the TGI in [1], in assay [2], in assay [3], in assay [4], in assay [5] and in assay [6] was over 100 µM throughout. Further, the TGI in [7], in assay [8], in assay [9] and in [10] was over 100 µM throughout.

As for `O=c1oc2ccc(I)cc2c(=O)n1-c1ccc(Cl)cc1F`, the GI50 was 3.14 µM in [1]; 2.87 µM in assay [2]; 1.09 µM in [3]; 2.28 µM in [4]; 0.598 µM in assay [5]; 0.516 µM in assay [6]. Moreover, the GI50 is 1.68 µM in assay [7], 0.416 µM in assay [8], 2.02 µM in [9] and 4.09 µM in [10]. Further, the TGI in assay [1] was 10.5 µM; in assay [2], over 100 µM; in assay [3], 5.61 µM; in assay [4], 21.7 µM; in [5] it was 7.87 µM; in assay [6], 3.49 µM. The TGI was determined as 19 µM in assay [7], 2.98 µM in assay [8], 88.2 µM in assay [9] and 16.9 µM in [10].

For the compound `N#CNC(N)=Nc1ccc(Cl)cc1`, the TGI in assay [1], in [2], in assay [3], in [4], in assay [5] and in assay [6] was over 100 µM in each case. Moreover, the TGI in assay [7], in [8], in [9] and in assay [10] was over 100 µM in each case.

For `CN1/C(=C\C=C\C2=[N+](C)c3ccccc3C2(C)C)C(C)(C)c2ccccc21`, the GI50 in [1] was 0.251 µM; in assay [2] it was 0.0413 µM; in [3] it was 0.55 µM; in [4], 0.105 µM; in assay [5] it was 0.223 µM; in assay [6], 0.0936 µM. Further, the GI50 in [7] is 0.0922 µM; in assay [8], 0.412 µM; in assay [9] it was 0.136 µM; in [10], 0.56 µM. Also, the TGI amounted to 5.44 µM in assay [1]; 13.5 µM in [2]; 5.04 µM in assay [3]; 12.1 µM in [4]; 1.31 µM in assay [5]; 0.818 µM in assay [6]. Also, the TGI in [7] was 5.21 µM; in assay [8], 2.84 µM; in assay [9] it was 3.79 µM; in [10], 14.8 µM.

Turning to `COc1cc(NCCCCCCCNC(C)C)c2nccc(C)c2c1`, the GI50 is 14.8 µM in [1]; 18.8 µM in assay [2]; 12.2 µM in [3]; 17 µM in assay [4]; 7.38 µM in assay [5]; 17.3 µM in assay [6]. Further, the GI50 in assay [7] was 4.08 µM; in assay [8], 17.7 µM; in assay [9], 12.6 µM; in assay [10] it was 17.1 µM. Moreover, the TGI in assay [1] is 28.6 µM; in assay [2], 38.3 µM; in [3], 25.6 µM; in assay [4], 31.4 µM; in [5] it was 20.7 µM; in assay [6], 34.8 µM. The TGI in [7] was 15.6 µM; in [8] it was 32.1 µM; in assay [9] it was 28.6 µM; in assay [10], 32.7 µM.

As to `COC(=O)C1(C)Cc2cc(OC(C)=O)c(OC(C)=O)cc2N1` (stereo not drawn), the GI50 in [1] was 24.1 µM; in assay [2], 11.6 µM; in assay [3] it was 2.98 µM; in assay [4] it was 14.1 µM; in [5], 15.6 µM; in assay [6] it was 3.18 µM. Besides, the GI50 in assay [7] was 9.34 µM; in assay [8] it was 13.8 µM; in assay [9] it was 8.83 µM; in assay [10], 11.1 µM. In addition, the TGI is 62.2 µM in assay [1]; 29.4 µM in assay [2]; 11.3 µM in [3]; over 58.9 µM in assay [4]; 54.4 µM in assay [5]; 15.4 µM in assay [6]. In addition, the TGI in assay [7] was 22.9 µM; in assay [8], 32.3 µM; in assay [9], 28.7 µM; in assay [10], 44.1 µM.

In the case of `CC1(C)CC2C(=O)c3ccccc3NC2c2ccccc21` (stereo not drawn), the TGI in assay [1], in [2], in assay [3], in assay [4], in assay [5] and in assay [6] was over 100 µM in each case. Besides, the TGI in [7], in assay [8], in assay [9] and in assay [10] was over 100 µM throughout.

Take `CN(C)C(=O)O[C@H]1CN[C@H](C#Cc2cc3ncnc(Nc4ccc(OCc5cccc(F)c5)c(Cl)c4)c3s2)C1`: the GI50 in assay [1] is 5.8 µM; in assay [2], 6.12 µM; in assay [3], 4.06 µM; in [4], 9.76 µM; in [5], over 25 µM; in [6] it was 5.15 µM. In addition, the GI50 was 20.4 µM in [7], over 25 µM in assay [8], over 25 µM in [9] and 0.765 µM in [10]. Moreover, the TGI in assay [1] is 15 µM; in assay [2] it was over 25 µM; in assay [3] it was over 25 µM; in assay [4], over 25 µM; in assay [5], over 25 µM; in assay [6], 14.5 µM. Also, the TGI was over 25 µM in assay [7], over 25 µM in assay [8], over 25 µM in [9] and over 17.4 µM in assay [10].

Take `CC(C)(C)OC(=O)NCCCCCCCn1c2c(c3ccccc3c1=O)C(=O)c1ccccc1-2`: the GI50 is 23.2 µM in assay [1]; 31.8 µM in [2]; 32.2 µM in assay [3]; 31.8 µM in assay [4]; 44.4 µM in assay [5]; 37.2 µM in assay [6]. The GI50 is 30.5 µM in assay [7], 50.4 µM in [8], 44 µM in assay [9] and 38.3 µM in [10]. In addition, the TGI is 55.4 µM in assay [1]; over 100 µM in assay [2]; 73 µM in [3]; over 100 µM in [4]; over 100 µM in assay [5]; over 100 µM in [6]. In addition, the TGI in [7], in assay [8], in [9] and in assay [10] was over 100 µM throughout.

`O=C1CCCCN1CCCCC#Cc1cccc(C#Cc2cccnc2)c1`: the GI50 in assay [1] was 13 µM; in assay [2], 18.4 µM; in assay [3], 35.5 µM; in assay [4], 43.2 µM; in assay [5], 14.3 µM; in assay [6] it was 21.7 µM. Besides, the GI50 is 13.4 µM in assay [7], 38.7 µM in [8], 39.9 µM in assay [9] and 49.8 µM in assay [10]. Besides, the TGI in assay [1] is 27.8 µM; in assay [2], 60.6 µM; in [3], over 100 µM; in [4] it was over 100 µM; in [5], 34.7 µM; in [6] it was 79.1 µM. For the same compound, the TGI in [7] was 32.1 µM; in assay [8], over 100 µM; in assay [9] it was over 100 µM; in assay [10], over 100 µM.

Regarding `Cc1cc(N(CCC#N)CCC#N)ccc1/C=C(\NC(=O)/C=C/c1ccccc1)C(=O)NN`, the TGI in assay [1], in [2], in assay [3], in assay [4], in assay [5] and in [6] was over 100 µM throughout. Besides, the TGI in [7] was over 100 µM; in [8], over 100 µM; in assay [9], over 100 µM; in assay [10] it was over 76.8 µM.

As to `CC(NC(=O)N(C)C)NC(=O)N(C)C`, the TGI in assay [1], in [2], in assay [3], in assay [4], in assay [5] and in assay [6] was over 10 µM in each case. Besides, the TGI in assay [7], in assay [8], in assay [9] and in [10] was over 10 µM each time.

As to `COc1ccc2c(c1)/C(=C/c1cc(OC)c(OC)c(OC)c1)C(=O)N2`, the GI50 in assay [1] was 0.236 µM; in assay [2], 0.603 µM; in assay [3], 0.118 µM; in [4], 0.655 µM; in assay [5], 0.351 µM; in assay [6], 0.556 µM. The GI50 in [8] is over 100 µM; in assay [9] it was 0.175 µM; in assay [10] it was 1.19 µM. Moreover, the TGI in assay [1] was over 94.3 µM; in assay [2], over 100 µM; in [4], over 100 µM; in [5] it was 11.7 µM; in assay [6] it was over 100 µM; in assay [7] it was over 100 µM. The TGI is over 100 µM in assay [8], over 100 µM in [9] and over 70.6 µM in assay [10].

Take `O=C1OCC2=C1C(c1ccccc1)c1cc3c(cc1N2CCO)OCO3` (stereo not drawn): the GI50 in assay [1] is 3.54 µM; in assay [2], 14.7 µM; in assay [3], 3.87 µM; in assay [4], 10.6 µM; in assay [5], 1.92 µM; in assay [6] it was over 50 µM. Besides, the GI50 was 4.38 µM in assay [7], over 50 µM in assay [8], 2.18 µM in [9] and 32.7 µM in [10]. Moreover, the TGI in [1] was over 50 µM; in assay [2] it was over 50 µM; in [3], over 50 µM; in assay [4], over 50 µM; in [5], 23.3 µM; in assay [6], over 50 µM. Besides, the TGI in assay [7], in [8], in [9] and in assay [10] was over 50 µM in each case.

For `O=C(O)c1ccccc1/C=N/N=C1c2ccccc2-c2ccccc21`, the TGI in [1], in assay [2], in assay [3], in [4], in [5] and in assay [6] was over 100 µM throughout. For the same compound, the TGI in assay [7], in assay [8], in [9] and in assay [10] was over 100 µM in each case.

With `O=C(O)[C@@H](Cc1ccc2ccccc2c1)NC(=O)n1c2ccccc2c2ccccc21`, the GI50 in [1] is 0.708 µM; in assay [2] it was 4.36 µM; in assay [3] it was 3.54 µM; in assay [4], 3.4 µM; in assay [5] it was 3.25 µM; in assay [6] it was 4.25 µM. In addition, the GI50 in assay [7] is 6.8 µM; in assay [8] it was 11.4 µM; in assay [9], 4.04 µM; in assay [10], 14.9 µM. The TGI is 12.2 µM in assay [1]; over 100 µM in assay [2]; 46.2 µM in assay [3]; over 100 µM in assay [4]; 19.5 µM in [5]; 31.5 µM in [6]. Moreover, the TGI in assay [7] is over 100 µM; in assay [8], 46.8 µM; in assay [9], over 100 µM; in assay [10], over 100 µM.
